What follows are compounds tested against T1, sodium-proton exchanger of subtype 3 (NHE3) (Homo sapiens, UniProt P48764) (assay: Recovery of intracellular pH (pHi) after acidification in LAP1 cells stably expressing NHE3 (BCECF fluorescence, FLIPR)). Conditions: LAP1 cells stably expressing NHE3; pH recovery after acidification; range 1 is % inhibition at 10 μM; read-out: Activity range (inhibitory effect on NHE3).
T1 construct: expressed in transfected cells
T1 sequence (P48764 26-834): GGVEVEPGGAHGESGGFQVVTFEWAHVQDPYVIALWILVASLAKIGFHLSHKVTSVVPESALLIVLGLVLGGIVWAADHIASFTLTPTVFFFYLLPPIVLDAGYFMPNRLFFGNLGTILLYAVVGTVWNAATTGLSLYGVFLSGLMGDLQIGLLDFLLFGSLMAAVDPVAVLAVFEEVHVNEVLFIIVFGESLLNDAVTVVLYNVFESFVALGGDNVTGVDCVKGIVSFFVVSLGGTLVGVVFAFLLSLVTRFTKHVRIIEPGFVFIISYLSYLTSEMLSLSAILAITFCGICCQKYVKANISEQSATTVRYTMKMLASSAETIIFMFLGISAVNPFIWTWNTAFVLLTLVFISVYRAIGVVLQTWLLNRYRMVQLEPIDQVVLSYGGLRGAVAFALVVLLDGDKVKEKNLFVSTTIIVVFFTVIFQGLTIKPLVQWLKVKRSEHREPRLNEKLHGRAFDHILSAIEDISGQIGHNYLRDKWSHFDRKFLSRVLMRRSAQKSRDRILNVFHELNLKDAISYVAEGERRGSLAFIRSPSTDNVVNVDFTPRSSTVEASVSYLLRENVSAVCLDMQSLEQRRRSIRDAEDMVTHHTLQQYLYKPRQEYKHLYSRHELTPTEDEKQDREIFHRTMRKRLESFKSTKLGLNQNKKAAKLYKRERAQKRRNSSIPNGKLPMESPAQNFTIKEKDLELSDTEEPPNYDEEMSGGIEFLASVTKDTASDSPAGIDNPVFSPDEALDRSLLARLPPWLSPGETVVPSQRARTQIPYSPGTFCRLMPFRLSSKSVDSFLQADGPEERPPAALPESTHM
Type: cell-based

| IC50 [nM] | inhibition at 10 µM [%] | Structure (SMILES) |
| --- | --- | --- |
| 1000 to 10000 | – | COCCc1ccc(O[C@@H]2c3ccccc3C[C@H]2N2CCC(CN)C2)cc1 (mixture of isomers) [Example 598, C-(1-{rac-trans-(1,2)-1-[4-(2-methoxyethyl)phenoxy]indan-2-yl}pyrrolidin-3-yl)methylamine] |
| 1000 to 10000 | – | NC(=O)c1ccc(O[C@@H]2c3ccccc3C[C@H]2N2CCC(N)C2)cc1 (mixture of isomers) [Example 544, 4-[rac-trans-(1,2)-2-(3-aminopyrrolidin-1-yl)indan-1-yloxy]benzamide] |
| 1000 to 10000 | – | Cc1cc(O[C@H]2c3cc(F)cc(Cl)c3C[C@@H]2N2CCC[C@@H](N)C2)ccc1S(=O)(=O)C(F)(F)F (racemic) [Example 90, (R)-1-[rac-trans-(1,2)-4-chloro-6-fluoro-1-(3-methyl-4-trifluoromethanesulfonylphenoxy)indan-2-yl]piperidin-3-ylamine] |
| – | 20 to 50 | COc1cc(Cl)ccc1O[C@H]1c2ccccc2CC[C@@H]1N1CCC[C@@H](N)C1 (racemic) [Example 64, (R)-1-[rac-trans-(1,2)-1-(4-chloro-2-methoxyphenoxy)-1,2,3,4-tetrahydronaphthalen-2-yl]piperidin-3-ylamine] |
| < 1000 | – | N[C@H]1CCCN([C@H]2CCc3ccccc3[C@@H]2Oc2cccc3[nH]nnc23)C1 (racemic) [Example 147, (S)-1-[rac-trans-(1,2)-1-(1H-benzotriazol-4-yloxy)-1,2,3,4-tetrahydronaphthalen-2-yl]piperidin-3-ylamine] |
| 1000 to 10000 | – | CCOc1cccc(O[C@@H]2c3ccccc3C[C@H]2N2CCC(CN)C2)c1 (mixture of isomers) [Example 615, C-{1-[rac-trans-(1,2)-1-(3-ethoxyphenoxy)indan-2-yl]pyrrolidin-3-yl}methylamine] |
| – | 20 to 50 | N[C@H]1CCCN([C@H]2CCc3ccccc3[C@@H]2Oc2ccncc2)C1 (racemic) [Example 191, (S)-1-[rac-trans-(1,2)-1-(pyridin-4-yloxy)-1,2,3,4-tetrahydronaphthalen-2-yl]piperidin-3-ylamine] |
| < 1000 | – | Cn1ccn(-c2ccc(F)c(O[C@H]3c4cc(Cl)cc(F)c4C[C@@H]3N3CC[C@@H](O)C3)c2)c1=O [Example 318, 1-{3-[(1S,2S)-6-chloro-4-fluoro-2-((R)-3-hydroxypyrrolidin-1-yl)indan-1-yloxy]-4-fluorophenyl}-3-methyl-1,3-dihydroimidazol-2-one] |
| < 1000 | – | CS(=O)(=O)c1ccc(O[C@H]2c3ccccc3CC[C@@H]2N2CCC[C@@H](N)C2)cc1 (racemic) [Example 73, (R)-1-[rac-trans-(1,2)-1-(4-methanesulfonylphenoxy)-1,2,3,4-tetrahydronaphthalen-2-yl]piperidin-3-ylamine] |
| – | 20 to 50 | CS(=O)(=O)c1ccc(O[C@H]2c3cc(Cl)cc(Cl)c3C[C@@H]2N2CCN(C3CC3)CC2)cc1 [Example 351, 1-Cyclopropyl-4-[trans-(1S,2S)-4,6-dichloro-1-(4-methanesulfonylphenoxy)indan-2-yl]piperazine] |
| < 1000 | – | Cc1nnc(C)n1-c1ccc(O[C@H]2c3cc(Cl)cc(Cl)c3C[C@@H]2N2CC[C@@H](O)C2)c(F)c1F [Example 126, (R)-1-{trans-(1S,2S)-4,6-dichloro-1-[4-(3,5-dimethyl-[1,2,4]triazol-4-yl)-2,3-difluorophenoxy]indan-2-yl}pyrrolidin-3-ol] |
| < 1000 | – | CC(=O)Nc1cccc(O[C@H]2c3cc(Cl)cc(Cl)c3C[C@@H]2N2CCC[C@@H](N)C2)c1 [Example 690, N-{3-[trans-(1S,2S)-2-((R)-3-aminopiperidin-1-yl)-4,6-dichloroindan-1-yloxy]phenyl}acetamide] |
| < 1000 | – | N[C@@H]1CCCN([C@@H]2Cc3ccccc3[C@H]2Oc2ccc(-n3cncn3)cc2)C1 (racemic) [Example 62, (R)-1-[rac-trans-(1,2)-1-(4-[1,2,4]triazol-1-ylphenoxy)indan-2-yl]piperidin-3-ylamine] |
| – | 20 to 50 | CS(=O)(=O)c1ccc(O[C@H]2c3cc(F)ccc3C[C@@H]2N2CCN(CC#N)CC2)cc1 (racemic) [Example 242, {4-[rac-trans-(1,2)-6-fluoro-1-(4-methanesulfonylphenoxy)indan-2-yl]piperazin-1-yl}acetonitrile] |
| < 1000 | – | CC(=O)Nc1cccc(O[C@H]2c3cc(Cl)cc(Cl)c3C[C@@H]2N2CCNCC2)c1 [Example 665, N-[3-(trans-(1S,2S)-4,6-dichloro-2-piperazin-1-ylindan-1-yloxy)phenyl]acetamide] |
| < 1000 | – | CC(=O)NCc1cccc(O[C@H]2c3ccccc3C[C@@H]2N2CCCC2)c1 (racemic) [Example 640, N-[3-(rac-trans-(1,2)-2-pyrrolidin-1-ylindan-1-yloxy)benzyl]acetamide] |

| IC50 [nM] | inhibition at 10 µM [%] | Structure (SMILES) |
| --- | --- | --- |
| 1000 to 10000 | – | N[C@@H]1CCCN([C@H]2CCc3ccccc3[C@@H]2Oc2ccc(-n3cncn3)cc2)C1 (racemic) [Example 61, (R)-1-[rac-trans-(1,2)-1-(4-[1,2,4]triazol-1-ylphenoxy)-1,2,3,4-tetrahydronaphthalen-2-yl]piperidin-3-ylamine] |
| – | 20 to 50 | CS(=O)(=O)c1ccccc1O[C@H]1c2cc(Cl)cc(Cl)c2C[C@@H]1N1CCC1 [Example 245, 1-[(1S,2S)-4,6-dichloro-1-(2-methanesulfonylphenoxy)indan-2-yl]azetidine] |
| < 1000 | – | Cc1nnc(C)n1-c1ccc(O[C@H]2c3cc(Cl)cc(Cl)c3C[C@@H]2NC2CCCC2)c(F)c1 [Example 746, Cyclopentyl-{trans-(1S,2S)-4,6-dichloro-1-[4-(3,5-dimethyl-[1,2,4]triazol-4-yl)-2-fluoro-phenoxy]-indan-2-yl}-amine] |
| 1000 to 10000 | – | Brc1ccc(O[C@@H]2c3ccccc3C[C@H]2N2C[C@H]3CNC[C@H]3C2)c(-c2cc[nH]n2)c1 (racemic) [Example 20, 2-{rac-trans-(1,2)-1-[4-bromo-2-(1H-pyrazol-3-yl)phenoxy]indan-2-yl}octahydropyrrolo[3,4-c]pyrrole] |
| – | 20 to 50 | CC(=O)Nc1cccc(O[C@H]2c3ccccc3C[C@@H]2N2CCSCC2)c1 (racemic) [Example 643, N-[3-(rac-trans-(1,2)-2-thiomorpholin-4-ylindan-1-yloxy)phenyl]acetamide] |
| 1000 to 10000 | – | CC(=O)Nc1cccc(O[C@H]2c3cccc(F)c3C[C@@H]2N2CCCC2)c1 (racemic) [Example 652, N-[3-(rac-trans-(1,2)-4-fluoro-2-pyrrolidin-1-ylindan-1-yloxy)phenyl]acetamide] |
| 1000 to 10000 | – | NCC1CCN([C@@H]2Cc3ccccc3[C@H]2Oc2ccc3c(c2)OCO3)CC1 (racemic) [Example 620, C-{1-[rac-trans-(1,2)-1-(benzo[1,3]dioxol-5-yloxy)indan-2-yl]piperidin-4-yl}methylamine] |
| < 1000 | – | NS(=O)(=O)c1ccc(O[C@H]2c3ccccc3C[C@@H]2N2CCCCCC2)cc1 (racemic) [Example 464, 4-(rac-trans-(1,2)-2-azepan-1-ylindan-1-yloxy)benzenesulfonamide] |
| 1000 to 10000 | – | CC1(C)NC(=O)N(c2ccc(F)c(O[C@H]3c4cc(Cl)cc(F)c4C[C@@H]3N3CC[C@@H](O)C3)c2)C1=O [Example 420, 3-{3-[(1S,2S)-6-chloro-4-fluoro-2-((R)-3-hydroxypyrrolidin-1-yl)indan-1-yloxy]-4-fluorophenyl}-5,5-dimethylimidazolidine-2,4-dione] |
| 1000 to 10000 | – | O=C1CNC(=O)N1c1ccc(Cl)c(O[C@H]2c3cc(Cl)cc(Cl)c3C[C@@H]2N2CC[C@@H](O)C2)c1 [Example 433, 3-{4-chloro-3-[(1S,2S)-4,6-dichloro-2-((R)-3-hydroxypyrrolidin-1-yl)indan-1-yloxy]phenyl}imidazolidine-2,4-dione] |
| 1000 to 10000 | – | CS(=O)(=O)c1ccc(O[C@H]2c3cc(Cl)cc(F)c3C[C@@H]2N2CC[C@@H](O)C2)cc1 [Example 108, (R)-1-[trans-(1S,2S)-6-chloro-4-fluoro-1-(4-methanesulfonylphenoxy)indan-2-yl]pyrrolidin-3-ol] |
| < 1000 | – | Cc1nnc(C)n1-c1ccc(O[C@H]2c3cc(Cl)cc(Cl)c3C[C@@H]2N2CCCC2)c(F)c1 [Example 499, 4-[4-(trans-(1S,2S)-4,6-dichloro-2-pyrrolidin-1-ylindan-1-yloxy)-3-fluorophenyl]-3,5-dimethyl-4H-[1,2,4]triazole] |
| < 1000 | – | O=C1OCCN1c1cccc(O[C@H]2c3ccccc3C[C@@H]2N2CCCC2)c1 (racemic) [Example 409, 3-[3-(rac-trans-(1,2)-2-pyrrolidin-1-ylindan-1-yloxy)phenyl]oxazolidin-2-one] |
| 1000 to 10000 | – | c1cc(O[C@@H]2c3ccccc3C[C@H]2N2C[C@H]3CNC[C@H]3C2)cc(N2CCNCC2)c1 (racemic) [Example 13, 2-[rac-trans-(1,2)-1-(3-piperazin-1-ylphenoxy)indan-2-yl]octahydropyrrolo[3,4-c]pyrrole] |
| 1000 to 10000 | – | CS(=O)(=O)c1ccc(O[C@H]2c3cccc(F)c3C[C@@H]2N2CCCC2)cc1 (racemic) [Example 285, 1-[rac-trans-(1,2)-4-fluoro-1-(4-methanesulfonylphenoxy)indan-2-yl]pyrrolidine] |

Reference: patent US8822449B2, “Substituted aminoindanes and analogs thereof, and the pharmaceutical use thereof” (Sanofi, priority 2008, dated 2014)
